In patent US20240109972A1, “ANTIBODY AND TAXANE COMBINATION THERAPY” (Genmab A/S, priority 2020, published 2024):

System: solid malignant tumors
Assay: GEN1046 Phase I dose escalation (NCT03917381), response by RECIST v1.1
Assay type: in vivo, human
Text: The resistance to, failure to respond to and/or relapse from treatment with a binding agent of the invention and/or other therapeutic agent(s) may be determined according to the Response Evaluation Criteria In Solid Tumors; version 1.1 (RECIST Criteria v1.1).
The “best overall response” is the best response recorded from the start of the treatment until disease progression/recurrence (the smallest measurements recorded since the treatment started will be used as the reference for PD). Subjects with CR or PR are considered to be objective response. Subjects with CR, PR or SD are considered to be in disease control. Subjects with NE are counted as non-responders. […]
Clinical trial on GCT1046-01 (ClinicalTrials.gov Identifier: NCT03917381) was designed as a two-part trial, including an ongoing dose escalation part and a planned expansion part.
The trial consists of 2 parts; a First-in-Human (FIH) dose escalation (Phase I) and an expansion (Phase 11a).
For dose escalation, subject was required to be a man or […] and was required to have measurable disease according to RECIST 1.1.

[1] = six patients with NSCLC, prior checkpoint immunotherapy

GEN1046: PD-L1×4-1BB bispecific antibody: PD-L1-547-FEAL combined with CD137-009-HC7LC2-FEAR (SEQ ID NOs: 1, 5, 21, 19; 8, 12, 22, 20)
Confirmed PD (Progressive Disease), patients (800 mg (N 9), Oct. 12, 2020): 2
Confirmed PR (Partial Response), patients (800 mg (N 9), Oct. 12, 2020): 0
Confirmed SD (Stable Disease), % of patients (800 mg (N 9), Oct. 12, 2020): 55.6%
Confirmed SD (Stable Disease), patients (800 mg (N 9), Oct. 12, 2020): 5
Disease Control (PR + PR + SD) Rate, % (800 mg (N 9), Oct. 12, 2020): 55.6%
Disease Control (PR + PR + SD) Rate, patients (800 mg (N 9), Oct. 12, 2020): 5
NE (Not Evaluable), % of patients (800 mg (N 9), Oct. 12, 2020): 22.2%
NE (Not Evaluable), patients (800 mg (N 9), Oct. 12, 2020): 2
Objective Response (CR + PR) Rate, patients (800 mg (N 9), Oct. 12, 2020): 0
PD (Progressive Disease), % of patients (800 mg (N 9), Oct. 12, 2020): 22.2%
PD (Progressive Disease), patients (800 mg (N 9), Oct. 12, 2020): 2
PR (Partial Response), patients (800 mg (N 9), Oct. 12, 2020): 0
CR (Complete Response), patients (1200 mg (N 4), Oct. 12, 2020): 0
Confirmed CR (Complete Response), patients (1200 mg (N 4), Oct. 12, 2020): 0
Confirmed Disease Control (PR + PR + SD) Rate, % (1200 mg (N 4), Oct. 12, 2020): 75.0%
Confirmed Disease Control (PR + PR + SD) Rate, patients (1200 mg (N 4), Oct. 12, 2020): 3
Confirmed NE (Not Evaluable), patients (1200 mg (N 4), Oct. 12, 2020): 0
Confirmed Objective Response (CR + PR) Rate, patients (1200 mg (N 4), Oct. 12, 2020): 0
Confirmed PD (Progressive Disease), % of patients (1200 mg (N 4), Oct. 12, 2020): 25.0%
Confirmed PD (Progressive Disease), patients (1200 mg (N 4), Oct. 12, 2020): 1
Confirmed PR (Partial Response), patients (1200 mg (N 4), Oct. 12, 2020): 0
Confirmed SD (Stable Disease), % of patients (1200 mg (N 4), Oct. 12, 2020): 75.0%
Confirmed SD (Stable Disease), patients (1200 mg (N 4), Oct. 12, 2020): 3
Disease Control (PR + PR + SD) Rate, % (1200 mg (N 4), Oct. 12, 2020): 75.0%
Disease Control (PR + PR + SD) Rate, patients (1200 mg (N 4), Oct. 12, 2020): 3
NE (Not Evaluable), patients (1200 mg (N 4), Oct. 12, 2020): 0
Objective Response (CR + PR) Rate, patients (1200 mg (N 4), Oct. 12, 2020): 0
PD (Progressive Disease), % of patients (1200 mg (N 4), Oct. 12, 2020): 25.0%
PD (Progressive Disease), patients (1200 mg (N 4), Oct. 12, 2020): 1
PR (Partial Response), patients (1200 mg (N 4), Oct. 12, 2020): 0
Partial responses, patients (ICI pre-treated NSCLC): 2
CR (Complete Response), patients (Total (N 61), Oct. 12, 2020): 0
Confirmed CR (Complete Response), patients (Total (N 61), Oct. 12, 2020): 0
Confirmed Disease Control (PR + PR + SD) Rate, % (Total (N 61), Oct. 12, 2020): (65.6%)
Confirmed Disease Control (PR + PR + SD) Rate, patients (Total (N 61), Oct. 12, 2020): 40
Confirmed NE (Not Evaluable), % of patients (Total (N 61), Oct. 12, 2020): (11.5%)
Confirmed NE (Not Evaluable), patients (Total (N 61), Oct. 12, 2020): 7
Confirmed Objective Response (CR + PR) Rate, % (Total (N 61), Oct. 12, 2020): (3.3%)
Confirmed Objective Response (CR + PR) Rate, patients (Total (N 61), Oct. 12, 2020): 2
Confirmed PD (Progressive Disease), % of patients (Total (N 61), Oct. 12, 2020): (23.0%)
Confirmed PD (Progressive Disease), patients (Total (N 61), Oct. 12, 2020): 14
Confirmed PR (Partial Response), % of patients (Total (N 61), Oct. 12, 2020): (3.3%)
Confirmed PR (Partial Response), patients (Total (N 61), Oct. 12, 2020): 2
Confirmed SD (Stable Disease), % of patients (Total (N 61), Oct. 12, 2020): (62.3%)
Confirmed SD (Stable Disease), patients (Total (N 61), Oct. 12, 2020): 38
Disease Control (PR + PR + SD) Rate, patients (Total (N 61), Oct. 12, 2020): 40
NE (Not Evaluable), % of patients (Total (N 61), Oct. 12, 2020): (11.5%)
NE (Not Evaluable), patients (Total (N 61), Oct. 12, 2020): 7
Objective Response (CR + PR) Rate, % (Total (N 61), Oct. 12, 2020): (6.6%)
Objective Response (CR + PR) Rate, patients (Total (N 61), Oct. 12, 2020): 4
PD (Progressive Disease), % of patients (Total (N 61), Oct. 12, 2020): (23.0%)
PD (Progressive Disease), patients (Total (N 61), Oct. 12, 2020): 14
PR (Partial Response), % of patients (Total (N 61), Oct. 12, 2020): (6.6%)
BOR Complete Response, (percent) (Total (n = 30), 3 Feb. 2020): (0)
BOR Complete Response, patients (Total (n = 30), 3 Feb. 2020): 0
BOR Partial Response, (percent) (Total (n = 30), 3 Feb. 2020): (10)
BOR Partial Response, patients (Total (n = 30), 3 Feb. 2020): 3
BOR Progressive Disease, (percent) (Total (n = 30), 3 Feb. 2020): (26.6)
BOR Progressive Disease, patients (Total (n = 30), 3 Feb. 2020): 8
BOR Stable Disease, (percent) (Total (n = 30), 3 Feb. 2020): (63.3)
BOR Stable Disease, patients (Total (n = 30), 3 Feb. 2020): 19
Partial responses, patients (ovarian cancer): 1
Patients who maintained stable disease [1]: two
Patients with progressive disease [1]: two
Patients with unconfirmed PR [1]: two
Partial responses, patients (triple negative breast cancer): 1
